Like-named read-outs stand apart in the source and are kept apart here.
Tests used:
[1] = molecular target: T1, (Rattus norvegicus, UniProt P49684); conditions: read-out: rU-II Ki; cited from earlier work
T1 sequence (P49684 1-386): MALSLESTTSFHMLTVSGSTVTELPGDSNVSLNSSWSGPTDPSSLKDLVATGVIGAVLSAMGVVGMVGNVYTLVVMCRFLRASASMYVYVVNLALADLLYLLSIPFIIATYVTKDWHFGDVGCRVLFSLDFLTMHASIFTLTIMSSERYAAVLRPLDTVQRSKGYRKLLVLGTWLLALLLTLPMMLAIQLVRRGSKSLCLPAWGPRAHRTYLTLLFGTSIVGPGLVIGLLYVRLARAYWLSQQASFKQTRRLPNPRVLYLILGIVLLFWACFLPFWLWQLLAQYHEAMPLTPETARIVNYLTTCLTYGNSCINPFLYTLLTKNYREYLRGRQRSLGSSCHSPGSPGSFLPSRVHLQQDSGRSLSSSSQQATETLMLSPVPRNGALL

[2] = molecular target: T2, rat GPR14 (U-II receptor) (Rattus norvegicus, UniProt P49684); conditions: agonist; calcium mobilization; read-out: FLIPR EC50; cited from earlier work
T2 construct: expressed in transfected cells
T2 sequence (P49684 1-386): T1 sequence (P49684 1-386)

[3] = system: streptozotocin-induced diabetic rats; conditions: long-term treatment; cited from earlier work
isolated arterial rings [4] = conditions: rats; read-out: EC50, contraction of isolated arterial rings; cited from earlier work
isolated arterial rings [5] = conditions: humans; read-out: EC50, contraction of isolated arterial rings; cited from earlier work
Human UII receptors = molecular target: T3, Human UII receptors (Homo sapiens, UniProt Q9UKP6); test: Human radioligand binding assay, (125I)-U-II on HSMM
T3 construct: host or cells: Human Skeletal Muscle Myoblasts (HSMM), intact adherent cells
T3 sequence (Q9UKP6 1-389): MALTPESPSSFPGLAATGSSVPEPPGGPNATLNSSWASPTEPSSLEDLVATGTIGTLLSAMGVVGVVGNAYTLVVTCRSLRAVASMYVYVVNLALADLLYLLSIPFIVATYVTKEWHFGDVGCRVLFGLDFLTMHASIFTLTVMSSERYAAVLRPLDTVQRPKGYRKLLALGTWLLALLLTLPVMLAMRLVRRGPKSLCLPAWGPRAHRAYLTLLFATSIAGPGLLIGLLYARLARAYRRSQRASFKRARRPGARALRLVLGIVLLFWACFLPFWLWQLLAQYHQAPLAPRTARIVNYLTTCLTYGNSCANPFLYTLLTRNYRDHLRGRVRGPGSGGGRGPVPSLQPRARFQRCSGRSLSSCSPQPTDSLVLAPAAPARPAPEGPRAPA
Experimental: Human Skeletal Muscle Myoblasts (HSMM) were obtained from Cambrex, and were cultured according to manufacturer's instruction. Cell viability was examined by trypan blue exclusion. Cells at less than 4 passages were used in all studies. […] The binding medium used was Dulbecco's modified Eagle's medium (DMEM) containing 2 mg/ml BSA and 25 mM HEPES (pH 7.4). […] The cells were washed 4× with the binding medium and solubilized in 1% SDS and 0.5 N NaOH. Radioactivity was quantified by gamma counting.

[6] = molecular target: T2, rat GPR14 (U-II receptor); test: Calcium flux assay (FLIPR); type: cell-based; conditions: Inhibition of acetyl-cyclic[Cys-Phe-Trp-Lys-(2-Nal)-Cys]-NH2 (1 nM) induced Ca2+ mobilization (FLIPR) in CHO cells transfected with rat UII receptor; 5 min incubation
Method in brief: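 Stable CHO cell line expressing cloned rat U-II receptor, seeded 24 h before assay, loaded with FLIPR calcium dye in HBSS/20 mM HEPES/0.1% BSA/2.5 mM probenecid, pH 7.4, for 1 hr at 37° C. Calcium mobilization read at room temperature (23° C.).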

[7] = 0.150 nM (125I)-U-II, intact Human Skeletal Muscle Myoblasts, 3 hrs, 25° C., read-out: Ki

In the case of “acetyl-cyclic[Cys-Phe-Trp-Lys-(2-Nal)-Cys]-NH2 [(Ac)-CFWK(2-NaI)C—NH2, agonist cyclic peptide used to induce Ca2+ mobilization in the FLIPR assay]”, the Ki [1] is given as 0.12 ± 0.05 nM and the EC50 [2] is given as 0.54 ± 0.2 nM.
For `CN(C)C(=O)C1(c2ccc(Cl)cc2)CCN(CCN2C(=O)CCc3ccccc32)CC1`, the melting point was 243 to 245 °C.
For `Cc1cc(NC(=O)NCCN2CCC(O)(Cc3ccccc3)CC2)c2ccccc2n1` [palosuran], the “development of proteinuria and renal damage” value [3] is given as “delayed the development of proteinuria and renal damage”, the “glycemia, glycosylated hemoglobin, and serum lipids” value [3] is given as “slowed the increase in glycemia, glycosylated hemoglobin, and serum lipids” and the insulin [3] is given as “increased insulin”. The renal blood flow [3] was “increased renal blood flow” and the survival [3] was “improved survival”.
In the case of “AGTAD-cyclo(CFWKYC)-V [Goby U-II, Urotensin-II isolated from the urophysis of the goby fish as a 12-mer]”, the EC50 (isolated arterial rings [4]) is listed as under 1 nM and the EC50 (isolated arterial rings [5]) is listed as under 1 nM.
In the case of `O=C(NCCCCCNS(=O)(=O)Cc1ccccc1)c1cc(Cl)ccc1C1CCN(CCN2C(=O)COc3ccccc32)CC1` [Cpd 78, 5-chloro-2-{1-[2-(3-oxo-2,3-dihydro-benzo[1,4]oxazin-4-yl)-ethyl]-piperidin-4-yl}-N-(5-phenylmethanesulfonylamino-pentyl)-benzamide], the Ki (Human UII receptors; [7]) is reported as 40 nM and the IC50 [6] is reported as 100 nM.
For `CC(C)(C)OC(=O)NCCCCNC(=O)c1ccccc1C1CCN(CCN2C(=O)COc3ccccc32)CC1` [Cpd 35, [4-(2-{1-[2-(3-oxo-2,3-dihydro-benzo[1,4]oxazin-4-yl)-ethyl]-piperidin-4-yl}-benzoylamino)-butyl]-carbamic acid tert-butyl ester], the Ki (Human UII receptors; [7]) was 590 nM and the IC50 [6] was 3000 nM.
For `O=C(NCC1CCN(C(=O)NCc2ccccc2)CC1)c1cc(Cl)ccc1C1CCN(CCN2C(=O)COc3ccccc32)CC1` [Cpd 67, 4-[(5-chloro-2-{1-[2-(3-oxo-2,3-dihydro-benzo[1,4]oxazin-4-yl)-ethyl]-piperidin-4-yl}-benzoylamino)-methyl]-piperidine-1-carboxylic acid benzylamide], the Ki (Human UII receptors; [7]) was 30 nM and the IC50 [6] was 210 nM.
Compound `CC(C)(C)OC(=O)N1CCN(CCNC(=O)c2cc(Cl)ccc2C2=CC3CCC(C2)N3CCN2C(=O)COc3ccccc32)CC1` (centres unmarked) [Cpd 94, 4-[2-(5-chloro-2-{8-[2-(3-oxo-2,3-dihydro-benzo[1,4]oxazin-4-yl)-ethyl]-8-aza-bicyclo[3.2.1]oct-2-en-3-yl}-benzoylamino)-ethyl]-piperazine-1-carboxylic acid tert-butyl ester] has a Ki (Human UII receptors; [7]) of 1900 nM and an IC50 [6] of 290 nM.
For `O=C(NCCc1c[nH]c2ccccc12)c1ccccc1C1CCN(CCN2C(=O)COc3ccccc32)CC1` [Cpd 26, N-[2-(1H-indol-3-yl)-ethyl]-2-{1-[2-(3-oxo-2,3-dihydro-benzo[1,4]oxazin-4-yl)-ethyl]-piperidin-4-yl}-benzamide], the Ki (Human UII receptors; [7]) was 750 nM and the IC50 [6] was 2000 nM.
In the case of `CC(C)(C)CC(=O)NCCCCCNC(=O)c1cc(Cl)ccc1C1CCN(CCN2C(=O)COc3ccccc32)CC1` [Cpd 76, 5-chloro-N-[5-(3,3-dimethyl-butyrylamino)-pentyl]-2-{1-[2-(3-oxo-2,3-dihydro-benzo[1,4]oxazin-4-yl)-ethyl]-piperidin-4-yl}-benzamide], the Ki (Human UII receptors) is reported as 43 nM and the IC50 [6] is reported as 150 nM.
`O=C(NCC1CCN(S(=O)(=O)Cc2ccccc2)CC1)c1cc(Cl)ccc1C1CCN(CCN2C(=O)COc3ccccc32)CC1` [Cpd 72, 5-chloro-2-{1-[2-(3-oxo-2,3-dihydro-benzo[1,4]oxazin-4-yl)-ethyl]-piperidin-4-yl}-N-(1-phenylmethanesulfonyl-piperidin-4-ylmethyl)-benzamide] gave a Ki (Human UII receptors; [7]) of 30 nM and an IC50 [6] of 53 nM.
With `CC(C)(C)OC(=O)NCCCCCNC(=O)c1cc(Cl)ccc1C1CCN(CCN2C(=O)COc3ccccc32)CC1` [Cpd 70, [5-(5-chloro-2-{1-[2-(3-oxo-2,3-dihydro-benzo[1,4]oxazin-4-yl)-ethyl]-piperidin-4-yl}-benzoylamino)-pentyl]-carbamic acid tert-butyl ester] the Ki (Human UII receptors; [7]) was 25 nM and the IC50 [6] was 32 nM.
In the case of `O=C(NCCc1ccc2ccccc2c1)c1ccccc1C1CCN(CCN2C(=O)COc3ccccc32)CC1` [Cpd 20, N-(2-naphthalen-2-yl-ethyl)-2-{1-[2-(3-oxo-2,3-dihydro-benzo[1,4]oxazin-4-yl)-ethyl]-piperidin-4-yl}-benzamide], the Ki (Human UII receptors; [7]) is reported as 720 nM and the IC50 [6] is reported as 2000 nM.
With `CC(C)(C)OC(=O)NCCCCNC(=O)c1cc(Cl)ccc1C1CCN(CCN2C(=O)COc3ccccc32)CC1` [Cpd 60, [4-(5-chloro-2-{1-[2-(3-oxo-2,3-dihydro-benzo[1,4]oxazin-4-yl)-ethyl]-piperidin-4-yl}-benzoylamino)-butyl]-carbamic acid tert-butyl ester] the Ki (Human UII receptors; [7]) was 150 nM and the IC50 [6] was 500 nM.
Compound `O=C(NCCCCCNC(=O)c1cc(Cl)ccc1C1CCN(CCN2C(=O)COc3ccccc32)CC1)NCCc1ccccc1` [Cpd 82, 5-chloro-2-{1-[2-(3-oxo-2,3-dihydro-benzo[1,4]oxazin-4-yl)-ethyl]-piperidin-4-yl}-N-[5-(3-phenethyl-ureido)-pentyl]-benzamide] has a Ki (Human UII receptors; [7]) of 120 nM and an IC50 [6] of 170 nM.
In the case of `CC(C)(C)OC(=O)NCCCCCNC(=O)c1cc(Cl)ccc1C1CCN(CCN2C(=O)CCc3ccccc32)CC1` [Cpd 83, [5-(5-chloro-2-{1-[2-(2-oxo-3,4-dihydro-2H-quinolin-1-yl)-ethyl]-piperidin-4-yl}-benzoylamino)-pentyl]-carbamic acid tert-butyl ester], the Ki (Human UII receptors; [7]) is reported as 220 nM and the IC50 [6] is reported as 360 nM.
Work on `CC(C)(C)OC(=O)N1CCC(CNC(=O)c2ccccc2C2CCN(CCN3C(=O)COc4ccccc43)CC2)CC1` [Cpd 50, 4-[(2-{1-[2-(3-oxo-2,3-dihydro-benzo[1,4]oxazin-4-yl)-ethyl]-piperidin-4-yl}-benzoylamino)-methyl]-piperidine-1-carboxylic acid tert-butyl ester] yielded a Ki (Human UII receptors; [7]) of 430 nM and an IC50 [6] of 2500 nM.
`CC(C)(C)OC(=O)N1CCN(CCNC(=O)c2ccccc2C2CC3CCC(C2)N3CCN2C(=O)COc3ccccc32)CC1` (centres unmarked) [Cpd 99, 4-[2-(2-{8-[2-(3-oxo-2,3-dihydro-benzo[1,4]oxazin-4-yl)-ethyl]-8-aza-bicyclo[3.2.1]oct-3-yl}-benzoylamino)-ethyl]-piperazine-1-carboxylic acid tert-butyl ester] gave a Ki (Human UII receptors; [7]) of 1400 nM and an IC50 [6] of 1100 nM.

— patent US8759342B2, “Benzo[1,4]oxazin-3-one, benzo[1,4]thiazin-3-one and quinolin-2-one urotensin II receptor antagonists” (Janssen Pharmaceutica NV, priority 2006, dated 2014)
